# Values of other authors in patent US6344218B1, “Skin deodorizing and santizing compositions” (The Procter & Gamble Company, priority 1998, dated 2002).
# Structures can show the parent of a compound that is named as a salt.
row,Compound,solubility in water
1,"O=[N+]([O-])C1(Br)COCOC1 [Bronidox L, 5-bromo-5-nitro-1,3-dioxane]",about 0.46%
2,"CC1(C)C(=O)N(CO)C(=O)N1CO [DMDM hydantoin, 1,3-bis(hydroxymethyl)-5,5-dimethyl-2,4-imidazolidinedione]",more than 50%
3,"ClC=CC[N+]12CN3CN(CN(C3)C1)C2.[Cl-] [Dowicil 200, 1-(3-Chlorallyl)-3,5,7-triaza-1-azoniaadamantane chloride]",freely soluble in water
4,"CC(C)(O)C(Cl)(Cl)Cl [chlorobutanol, 1,1,1-Trichloro-2-methylpropan-2-ol]",about 0.8%
5,[Na+].[O-][n+]1ccccc1[S-] [sodium pyrithione],about 50%

# Other lines, results leading:
row,solubility in water,Compound
1,about 2.67%,OCCOc1ccccc1 [2-phenoxyethanol]
2,about 2%,OCCc1ccccc1 [2-phenylethanol]
3,about 25%,"O=[N+]([O-])C(Br)(CO)CO [Bronopol, 2-bromo-2-nitropropane-1,3-diol]"
4,about 4%,OCc1ccccc1 [benzyl alcohol]
5,about 1.8%,"[H]/N=C(\N/C(=N/[H])NCCCCCCNC(=N)NC(=N)Nc1ccc(Cl)cc1)Nc1ccc(Cl)cc1 [diacetate salt, 1,1′-hexamethylene bis(5-(p-chlorophenyl)biguanide), reference compound]"
6,about 70%,"[H]/N=C(\N/C(=N/[H])NCCCCCCNC(=N)NC(=N)Nc1ccc(Cl)cc1)Nc1ccc(Cl)cc1 [digluconate salt, 1,1′-hexamethylene bis(5-(p-chlorophenyl)biguanide), reference compound]"
